Measurements reported in paper PMC9046208, “Foldamers reveal and validate therapeutic targets associated with toxic α-synuclein self-assembly” (Nature Communications, 2022).

Experiments:
[1] = system: HEK cells expressing αS-A53T-YFP; experiment: Inclusion count by confocal imaging, HEK cells αS-A53T-YFP; assay type: cell-based; settings: αS fibers 7 μM aggregated with equimolar SK-129, 24 h
Description: The Lipofectamine solution (Lipofectamine+P3000 reagent, Thermo Fisher Scientific, Waltham, MA) was diluted to a ratio of 1:20 (v,v) in the OptiMEM (Fisher Scientific, Pittsburgh, PA) media. Simultaneously, the αS fiber solution (Stock solution conc. = 100 μM) was diluted in OptiMEM media to the desired conc. used for each assay. The αS fiber solution was sonicated for 10 min at r.t., followed by the addition of the Lipofectomine solution (in the OptiMEM media) at 1:1 ratio. Subsequently, this solution was incubated for another 10 min and then added to the HEK cells media with a dilution factor of 10 (10 μL of the combined αS fiber solution+Lipofectomine solution, in 90 μL HEK cells media). […]
We used confocal microscopy imaging to manually count the endogenous inclusions (of αS-A53T-YFP and αS-YFP). […] The counting of inclusions was carried out for six different experiments and for each experiment, 100 cells were counted from at least four different locations from the eight-well plate. The cells were counted manually by counting the number of Hoechst 33342 dye-stained nuclei in the cells. Also, the inclusions in the cells were counted manually at different locations in the eight-well plate.

[2] = Parallel artificial membrane permeability assay (PAMPA); assay type: in vitro ADME; settings: 4% lecithin in dodecane; for permeability Pe: 1x PBS, 500 μM donor, RT, 18 h, UV absorbance
Description: A parallel artificial membrane permeability assay (PAMPA) Kit (BioAssay Systems, Hayward, CA) was used to measure the membrane permeability of SK-129 according to the manufacturer’s protocol. Briefly, a 4% lecithin solution (LS) was prepared in dodecane and solubilized with constant sonication for 20 min. Then, 5 µL of LS was placed on the donor plate membranes. A 300 μL 1x PBS buffer was applied to the acceptor plate. The solutions of SK-129 and various permeability controls (Highly soluble, medium soluble and low soluble) molecules were added to donor plates (200 μL and 500 μM). The donor plate was placed in the acceptor plate and incubated at RT for 18 h. Then the solutions were removed from the acceptor plate and placed in a clear-bottom 96-well plate (Corning Inc., Corning, NY) and absorbance was recorded at 360 nm for SK-129 and 275 nm for standards. The permeability was calculated using Eq. 2:2 Pe=C×−ln1−ODA/ODEcm/s Where the permeability rate C is 7.72 × 10^−6, ODA is the absorbance of acceptor solution and ODE is absorbance of equilibrium standard.

[3] = target: T1, αS oligomers (Homo sapiens, UniProt P37840); experiment: Gel shift assay of αS supernatant (oligomers); assay type: biochemical; settings: 70 µM αS, 0.1, 0.2, 0.5 mol eq. ligand, 7 days
T1 construct: made in house; host or cells: Escherichia coli BL21(DE3), periplasm
Description: Supplementary Fig. 8. Gel-shift images of αS (70 µM) incubated in the absence (lane 2) and presence of SK-129 (a) and EGCG (b) at sub-stoichiometric ratios (0.1, 0.2, 0.5 mol eq.) for 7 days at 370C with constant shaking. The solutions of αS in the absence and presence of ligands were centrifuged and the supernatant was used for the gel shift assay. The arrows indicate the formation of various αS structures. The gel shift assay of the supernatant of the αS aggregated […]
fibers. Most of the αS was found in the supernatant as a mo nomer and a dimer in the presence of […]
their formation. The gel experiments were conducted at least two times to confirm the reproducibility of the data.
(1 picture or pasted object on this page, not shown here)

In the case of `COC(=O)c1cc(OCC(=O)O)c2cccc(NC(=O)c3cc(OC(C)C)c4cccc(NC(=O)c5cc(OCC(=O)O)c6cccc(NC(=O)c7cc(OC(C)C)c8cccc([N+](=O)[O-])c8n7)c6n5)c4n3)c2n1` [SK-129], the “inclusions (αS-A53T-YFP or αS-YFP)” value [1] is reported as “A very small number of inclusions”, the membrane permeation [2] is reported as “efficiently permeate cell membranes” and the “permeability Pe” value ([2]; trial 1) is reported as 4.75e-06 cm/s. The “permeability Pe” value ([2]; trial 2) was 4.45e-06 cm/s, the “permeability Pe” value ([2]; trial 3) was 4.64e-06 cm/s and the “permeability Pe” value ([2]; trial 4) was 4.65e-06 cm/s. For the same molecule, the “permeability Pe” value ([2]; trial 5) was 4.64e-06 cm/s, the “permeability Pe” value ([2]; trial 6) was 4.36e-06 cm/s and the “permeability Pe” value ([2]; trial 7) was 4.67e-06 cm/s. The “permeability Pe” value ([2]; trial 8) was 4.79e-06 cm/s and the “αS species in gel shift assay” value [3] was “potently inhibits αS aggregation”.
